Earlier results, collected in patent US20100087475A1, “PHARMACEUTICAL COMPOUNDS” (Biovali Laboratories International (Barbados) S.R.L., priority 2008, published 2010).

Target: VMAT2 (Homo sapiens, UniProt Q05940)
Settings: Erickson et al. (1996); cited from earlier work

Sequence of VMAT2 (Q05940 whole entry): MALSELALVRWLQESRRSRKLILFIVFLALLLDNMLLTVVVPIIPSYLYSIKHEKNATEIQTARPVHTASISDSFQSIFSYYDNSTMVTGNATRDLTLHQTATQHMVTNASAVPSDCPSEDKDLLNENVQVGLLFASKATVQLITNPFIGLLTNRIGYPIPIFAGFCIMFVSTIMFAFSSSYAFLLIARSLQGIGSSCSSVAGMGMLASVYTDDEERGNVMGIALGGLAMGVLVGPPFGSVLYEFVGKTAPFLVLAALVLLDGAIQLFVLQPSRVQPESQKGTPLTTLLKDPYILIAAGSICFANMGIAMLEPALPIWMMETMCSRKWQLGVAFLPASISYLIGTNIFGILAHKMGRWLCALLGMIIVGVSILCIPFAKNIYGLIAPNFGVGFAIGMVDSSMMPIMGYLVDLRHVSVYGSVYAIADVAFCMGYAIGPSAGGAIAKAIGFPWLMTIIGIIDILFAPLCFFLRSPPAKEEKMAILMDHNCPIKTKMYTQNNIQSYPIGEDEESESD

COc1cc2c(cc1OC)C1CC(=O)C(CC(C)C)CN1CC2 (stereo not shown) [tetrabenazine, 1,3,4,6,7,11b-hexahydro-9,10-dimethoxy-3-(2-methylpropyl)-2H-benzo(a)quinolizin-2-one]
affinity for VMAT2 in comparison to VMAT1: ≥ 200 fold
